In patent US8110217B2, “Sphingomyelin liposomes for the treatment of hyperactive bladder disorders” (priority 2001, dated 2012):
Several values for one entry are separate records, joined by “and”; a condition that tells them apart may be missing. Equal entries are not always repeated. Entries after “also recorded” stand apart in the source; their conditions may differ.

Tested on: acute hyperactive bladder
Assay: Continuous CMG, acute hyperactive bladder model with intravesical PS and KCl (Examples 7-8)
Type: in vivo, female Sprague-Dawley rats
Method: An animal model for acute hyperactive bladder in rats was developed using intravesical infusion of PS, an agent used to break down urothelial barrier function and physiological concentrations of KCl.
Continuous CMGs were performed in urethane-anesthetized female rats. The bladder was filled (0.04 ml/min) with normal saline followed by intravesical infusion for a 60 minute period with a test solution comprising either KCl (100 or 500 mM) or PS (10 or 30 mg/ml). Following this, 10 mg/ml PS treated animals were infused intravesically with 100, 300 or 500 mM KCl. Some animals were pretreated with capsaicin ([…], sc) four days before the experiments.
Animal Preparation. The study was performed on 40 female Sprague-Dawley rats weighing 250-300 gm. Animals were anesthetized with 1.2 gm/kg urethane injected subcutaneously. Body temperature was maintained in the physiological range using a heating lamp.
Cystometrogram (CMG). PE-50 tubing (Clay-Adams, Parsippany, N.J.) was inserted into the bladder through the urethra and connected via a three-way stopcock to a pressure transducer and to a syringe pump. This was used for recording intravesical pressure and for infusing solutions into the bladder. A control CMG was performed by slowly filling the bladder with saline (0.04 ml/min) to elicit repetitive voiding. The amplitude, PT, compliance and intercontraction interval (ICI) of reflex bladder contractions were recorded. Pressure threshold (PT) represents the pressure that induces the initial bladder contraction. PT often has been used as a parameter corresponding to afferent nerve activity for the induction of reflex bladder contractions. Measurements in each animal represented the average of 3 to 5 bladder contractions.
After performing control CMGs with saline infusion, three intravesical infusion experiments were performed in parallel: (1) infusion of KCl (100 or 500 mM in saline) for one hour (N=4 in each group); (2) infusion of PS (Sigma Chemical Co.; 30 mg/ml in saline) for one hour (N=6); and (3) infusion of PS (10 mg/ml) for one hour, followed by 100, 300 or 500 mM KCl for one hour (N=6, in each subgroup). In four animals, capsaicin dissolved in a vehicle containing 10% ethanol, 10% TWEEN®80 and 80% physiological saline, at a concentration of 20 mg/ml was given subcutaneously in divided doses on 2 consecutive days. The doses included 25 and 50 mg/kg at a 12-hour interval on the first day and 50 mg/kg on the second day, as previously described (C. L. Cheng et al., 1993, Am. J. Physiol. 265:R132-138). All injections were performed under halothane anesthesia. Four days after the last dosage of capsaicin, the animals were anesthetized and treated with intravesical administration of PS (10 mg/ml) for 1 hour followed by KCl (500 mM) infusion.
Suppression of Micturition Reflex. To evaluate the direct effects of potassium on detrusor muscle, micturition reflex was blocked in 4 animals by either intravenous hexamethonium injection (25 mg/kg) (N=2) or transection of bilateral pelvic nerves (N=2).
Statistical Analysis. Statistical analyses were performed using Student's t test for paired or unpaired data, as applicable, with p<0.05 considered significant. Quantitative data are expressed in Example 8 (below) as means plus or minus standard error.

[1] = 100 mM KCl alone, one hour, N=4
[2] = 100 mM KCl following 10 mg/ml PS, N=6
[3] = 300 mM KCl following 10 mg/ml PS, N=6
[4] = 300 mM KCl following PS 10 mg/ml
[5] = 500 mM KCl alone, one hour, N=4
[6] = 500 mM KCl following 10 mg/ml PS, N=6
[7] = 500 mM KCl following PS 10 mg/ml
[8] = KCl 500 mM 1 hr after one hour PS 10 mg/ml, capsaicin pretreated animals, N=4
[9] = KCl 500 mM 2 hr after one hour PS 10 mg/ml, capsaicin pretreated animals, N=4
[10] = KCl 500 mM following PS 10 mg/ml, micturition reflex suppressed animals
[11] = capsaicin pretreated animals, PS 10 mg/ml then KCl 500 mM, 2 hours of infusion

[Cl-].[K+] [KCl]
Amplitude [1]: 28.2 ± 0.5 cm H2O
Compliance [1]: 0.205 ± 0.032 ml/cm H2O
ICI [1]: 13.8 ± 2.0 min
PT [1]: 5.9 ± 0.5 cm H2O
Amplitude [2]: 28.2 ± 3.7 cm H2O
Compliance [2]: 0.157 ± 0.022 ml/cm H2O
ICI [2]: 18.8 ± 2.1 min
PT [2]: 3.0 ± 1.3 cm H2O
Amplitude [3]: 31.3 ± 0.7 cm H2O
Compliance [3]: 0.066 ± 0.012 ml/cm H2O
ICI [3]: 5.2 ± 1.7 min
PT [3]: 3.3 ± 0.9 cm H2O
ICI decrease [4]: 76.9%
compliance decrease [4]: 60%
contraction amplitude increase [4]: 23.7%
onset of irritation (delay) [4]: 20 to 30 min
Amplitude [5]: 28.8 ± 1.2 cm H2O
Compliance [5]: 0.237 ± 0.023 ml/cm H2O
ICI [5]: 15.8 ± 2.4 min
PT [5]: 8.2 ± 0.9 cm H2O
Amplitude [6]: 29.5 ± 3.4 cm H2O
Compliance [6]: 0.075 ± 0.009 ml/cm H2O
ICI [6]: 3.2 ± 1.3 min
PT [6]: 5.4 ± 1.0 cm H2O
ICI decrease [7]: 82.9%
compliance decrease [7]: 63.4%
contraction amplitude increase [7]: 21.4%
onset of irritation (delay) [7]: 10 to 15 min
PT change (300 or 500 mM KCl following PS 10 mg/ml): not significantly altered
Amplitude [8]: 20.3 ± 0.3 cm H2O
Compliance [8]: 0.218 ± 0.013 ml/cm H2O
ICI [8]: 21.3 ± 2.8 min
PT [8]: 5.8 ± 0.5 cm H2O
Amplitude [9]: 16.0 ± 1.7 cm H2O
Compliance [9]: 0.100 ml/cm H2O and 0.100 ± 0.016 ml/cm H2O
ICI [9]: 13.1 ± 2.8 min
PT [9]: 7.6 ± 1.7 cm H2O
Compliance [10]: 0.041±0.011 ml/cm H2O
compliance decrease [10]: 55.9%
detrusor muscle / bladder compliance [10]: stimulated the detrusor muscle and decreased bladder compliance
irritative effects / CMG parameters (KCl 100 or 500 mM alone): not observed; also recorded: not significantly different from those during saline administration
ICI decrease [11]: 36%
compliance decrease [11]: 55%
bladder hyperactivity (high concentrations of KCl (300/500 mM) following one hour of PS 10 mg/ml): induced bladder hyperactivity (decrease ICI)
CMG parameters (low concentration KCl (100 mM), one hour, following PS 10 mg/ml): did not produce significant changes in the CMG parameters; also recorded: had no effect
